Reference: PMC11249637, “Interaction of the Atypical Tetracyclines Chelocardin and Amidochelocardin with Renal Drug Transporters” (ACS Pharmacology & Translational Science, 2024)

Biological target: T1, mOct1 (Mus musculus, UniProt O08966)
T1 construct: expressed in transfected cells; host or cells: HEK293
T1 sequence (O08966 1-556): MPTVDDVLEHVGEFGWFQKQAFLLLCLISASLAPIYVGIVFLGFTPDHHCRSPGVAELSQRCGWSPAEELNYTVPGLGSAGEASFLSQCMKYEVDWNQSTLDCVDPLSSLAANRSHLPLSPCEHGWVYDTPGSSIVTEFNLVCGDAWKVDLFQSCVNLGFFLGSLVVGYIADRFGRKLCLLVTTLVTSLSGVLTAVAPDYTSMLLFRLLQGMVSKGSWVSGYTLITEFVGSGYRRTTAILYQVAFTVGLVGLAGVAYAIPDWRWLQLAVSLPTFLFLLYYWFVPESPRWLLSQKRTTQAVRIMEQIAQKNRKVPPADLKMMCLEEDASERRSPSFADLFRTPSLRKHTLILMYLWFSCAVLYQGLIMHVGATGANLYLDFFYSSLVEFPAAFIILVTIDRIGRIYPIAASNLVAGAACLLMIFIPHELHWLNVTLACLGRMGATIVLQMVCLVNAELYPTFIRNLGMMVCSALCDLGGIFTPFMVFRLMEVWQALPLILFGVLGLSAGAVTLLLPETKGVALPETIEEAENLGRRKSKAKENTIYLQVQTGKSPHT
Test: Three-point uptake (substrate assessment) in mOct1-overexpressing HEK293 cells
Type: in vitro ADME
Protocol: This is important to gain a better understanding of the underlying mechanisms of secretion into urine. Therefore, we assessed the amount of compound taken up by the vector and transporter cells at three different concentrations (1, 10, and 100 μM for mOat1 and mOct1; 0.1, 1, and 10 μM for mOat3) and at two different incubation periods (1 and 5 min for mOat1 and mOct1; 5 and 10 min for mOat3).
The incubation buffer contained CHD and CDCHD in a final concentration of 1, 10, and 100 μM. After 1 and 5 min, the incubation was terminated. In addition, the probe inhibitor decynium22 (50 μM) was added in one concentration to 10 μM CHD and CDCHD, respectively, and after 1 and 5 min, the incubation was stopped. Inhibition of mOct1-mediated ^3H-MPP (10 μM) uptake by 50 μM decynium22 was performed as a control experiment. After 1 min, the incubation was terminated. All experiments were conducted in triplicate.
First, a calibration curve was prepared by spiking different concentrations of CHD and CDCHD into the cell matrix. Caffeine was used as an internal standard. In addition, quality control samples (QCs) were prepared for CHD and CDCHD in a cell matrix. The following extraction procedures were used: 300 μL of acetonitrile/water (1:1) is added to the cell pellet (sample or calibration/QC sample) for 15 min at 2000 rpm on an Eppendorf MixMate vortex mixer. 10 μL of this extracted sample is used for further analysis. 10 μL of the extracted cell sample is further extracted with 25 μL of a mixture of methanol/acetonitrile (2:1) containing 12.5 ng/mL caffeine as an internal standard (on ice) for 5 min at 2000 rpm on an Eppendorf MixMate vortex mixer. Then, samples were spun down at 15,870 × g for 10 min. Supernatants were transferred to standard HPLC glass vials. Samples were analyzed using an Agilent 1290 Infinity II HPLC system coupled to an AB Sciex QTrap6500plus mass spectrometer. LC conditions were as follows: column: Agilent Zorbax Eclipse Plus C18, 50 × 2.1 mm, 1.8 μm; temperature: 30°C; injection volume: 5 μL per sample; flow rate: 700 μL/min. Samples were run under the following conditions. Solvents: A: 100% water +0.1% formic acid; solvent B: 100% acetonitrile +0.1% formic acid. The gradient for CDCHD was as follows: 99% A at 0 min, 99% A until 0.1 min, 99–90% A from 0.1 to 1.0 min, 90–50% A from 1.0 to 2.4 min, 50–35% A from 2.4 to 2.7 min, 35–0% A from 2.7 until 4.5 min, 0% A until 5.5 min, 0–99% from 5.5 to 5.7 min, 99% A until 6.0 min. The gradient for CHD was as follows: 99% A at 0 min, 99% A until 0.1 min, 99–90% A from 0.1 to 1.0 min, 90–55% A from 1.0 to 2.3 min, 55–40% A from 2.3 to 2.5 min, 40–0% A from 2.5 until 4.5 min, 0% A until 5.5 min, 0–99% from 5.5 to 5.7 min, 99% A until 6.0 min. Mass transitions are depicted in Table S2.
For statistical testing of differences in uptake ratio or for the inhibitory effect, an ordinary one-way ANOVA test was performed using GraphPad Prism 9.5.1 software. For statistical testing of difference in uptake on vector- or transporter-overexpressing cells, an ordinary two-way ANOVA test was performed using GraphPad Prism 9.5.1 software. Michaelis–Menten kinetics were determined using the Michaelis–Menten algorithm of GraphPad Prism 9.5.1 software. Image resolution was adjusted by using GIMP software.

SMILES: Cc1ccc2c(C)c3c(c(O)c2c1O)C(=O)[C@@]1(O)C(=O)C(C(N)=O)=C(O)[C@@H](N)[C@H]1C3 [CDCHD, amidochelocardin]
- substrate of mOct1 (in words): is not a substrate
- uptake ratio (cells without vs with decynium22), mOct1 (10 μM compound, 50 μM decynium22, 1 and 5 min): 1
- mOct1: Vmax (Michaelis–Menten fit, 1, 10 and 100 μM): 15.0 nM/min

SMILES: CC(=O)C1=C(O)[C@@H](N)[C@H]2Cc3c(c(O)c4c(O)c(C)ccc4c3C)C(=O)[C@@]2(O)C1=O [CHD, chelocardin]
- substrate of mOct1 (in words): is a substrate
- less uptake in the presence of the specific inhibitor decynium22, mOct1 (10 μM compound, 50 μM decynium22, 5 min): around 50%
